In brackets after ≈: the same amount, converted by molar mass. Where two headings read alike, the source gives them in different places.
Key:
Hepatitis B Virus (HBV) = test: Inhibition of HBV replication in 2.2.15 cells, extracellular (virion) HBV DNA; settings: for EC50 / EC90: Hepatitis B virus; for anti-HBV activity (in words): 2.2.15 cells;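 on all read-outs here: extracellular virion HBV DNA in culture medium measured by slot blot hybridization with a 32P-labeled HBV probe, quantified against HBV DNA standards, after 9 days of daily dosing, compared with day 0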
Procedure: Test compounds were added daily for a nine continuous day period; the culture medium was collected and stored for analysis of extracellular (virion) HBV DNA after 0, 3, 6, and 9 days of treatment. The treated cells were lysed 24 hours following day 9 of treatment for the analysis of intracellular HBV genomic forms. The overall levels of HBV DNA (both extracellular and intracellular DNA) and the relative rate of HBV replication (intracellular DNA) were analyzed quantitatively. The analysis was performed using blot hybridization techniques and [^32P]-labeled HBV-specific probes. The HBV DNA levels were measured by comparison to known amounts of HBV DNA standards applied to every nitrocellulose membrane (gel or slot blot). An AMBIS beta scanner, which measures the radioactive decay of the hybridized probes directly from the nitrocellulose membranes, was used for the quantitative analysis. Standard curves, generated by multiple analyses, were used to correlate CPM measurements made by the beta scanner with relative levels of target HBV DNA. The levels of HBV virion DNA released into the culture medium were analyzed by a slot blot hybridization procedure. HBV DNA levels were then compared to those at day 0 to determine the effect of the test compound. A known positive drug was evaluated in parallel with test compounds in each test.
Determination of therapeutic concentrations (EC50 and EC90) and toxicity concentrations (IC50) were determined as previously described (90). Stock solutions of text drugs were prepared in DMSO. Culture medium was changed daily and analyzed for extracellular HBV DNA after nine days of continuous drug exposure. Extracellular HBV DNA was extracted from the culture media and analyzed by a slot blot hydridization technique, using a ^32P-labeled Eco RI HBV DNA fragment, as previously described (91), and quantitated via comparison to HBV standards on a nitrocellulose filter, using an AMBIS beta scanner. Toxicity was determined by measuring inhibition of neutral red dye uptake. […] Effective concentration values for individual agents are the mean of six cultures per concentration point. Toxicity values are the mean of three cultures per concentration point.

2.2.15 cells = test: HBV cytotoxicity assay, neutral red dye uptake in 2.2.15 cells; assay type: cell-based; settings: Homo sapiens, read-out: IC50 (toxicity, neutral red dye uptake)
Procedure: The toxicity of the test compounds in cultures of 2.2.15 cells, grown to confluence in 96-well flat-bottomed tissue culture plates and treated with compounds as described above, were assayed at four concentrations each in triplicate cultures, in 3 to 10-fold steps. Untreated control cultures were maintained on each plate. On each plate, wells containing no cells were used to correct for light scattering.
Stock solutions of text drugs were prepared in DMSO.

[1] = tested on: Parainfluenza Type 3 Virus; test: organism not typed; assay type: cell-based; settings: MA104; Parainfluenza Type 3 Virus; read-out: CPI Inhibition EC50
VZV = VZV plaque reduction assay in HFF cells; settings: for VZV SI (CC50/EC50): HFF Cells
in vitro [2] = settings: dog
Influenza B Panama/45/90 [3] = test: microbe, parasite or virus in culture; assay type: cell-based; settings: Influenza B virus, MDCK, read-out: Neutral Red EC50
HSV-2 = HSV-2 CPE inhibition in HFF cells
[4] = tested on: Influenza A (H1N1) Texas/36/91; test: microbe, parasite or virus in culture; assay type: cell-based, influenza A virus; settings: Influenza A virus, MDCK; Influenza A (H1N1) Texas/36/91; read-out: Neutral Red EC50
[5] = tested on: Parainfluenza Type 3 Virus; test: organism not typed; assay type: cell-based; settings: MA104, read-out: Neutral Red EC50
HIV-1 RT = biological target: T1, HIV-1 RT (Human immunodeficiency virus type 1 group M subtype B, UniProt P03366); test: Anti-HIV-1 RT assay (recombinant enzyme); assay type: biochemical
T1 construct: made in house; host or cells: Escherichia coli

in vitro [6] = settings: African green monkey
[7] = Cytotoxicity by neutral red dye uptake, MA-104 cells; settings: African green monkey, Neutral Red IC50 (cytotoxic)
[8] = Cytotoxicity (CC50) in HFF cells in the herpes virus tests; settings: human
in vitro [9] = settings: dog, Neutral Red IC50 (cytotoxic)
[10] = tested on: Respiratory Syncytial Virus; test: microbe, parasite or virus in culture; assay type: cell-based; settings: human respiratory syncytial virus, MA104; read-out: CPE Inhibition EC50
Influenza B Panama/45/90 [11] = test: microbe, parasite or virus in culture; assay type: cell-based; settings: Influenza B virus, MDCK; Influenza B Panama/45/90; read-out: CPE Inhibition EC50
[12] = tested on: Influenza A (H3N2) Beijing/32/92; test: microbe, parasite or virus in culture; assay type: cell-based, influenza A virus; settings: Influenza A virus, MDCK; Influenza A (H3N2) Beijing/32/92; read-out: Neutral Red EC50
in vitro [13] = settings: African green monkey; remark: listed apart in the source
[14] = Cytotoxicity by neutral red dye uptake, BSC-1 cells; settings: African green monkey
Adenovirus Type 5 [15] = test: Adenovirus type 5 neutral red dye uptake in A549 cells; assay type: cell-based; settings: Human mastadenovirus C, A549; Adenovirus Type 5; read-out: Neutral Red EC50
HSV-1 = HSV-1 CPE inhibition in HFF cells
[16] = Cytotoxicity by neutral red dye uptake, A549 cells; settings: human
[17] = tested on: Respiratory Syncytial Virus; test: microbe, parasite or virus in culture; assay type: cell-based; settings: human respiratory syncytial virus, MA104; read-out: Neutral Red EC50
HCMV = HCMV CPE inhibition in HFF cells
[18] = tested on: Influenza A (H3N2) Beijing/32/92; test: microbe, parasite or virus in culture; assay type: cell-based, influenza A virus; settings: Influenza A virus, MDCK; Influenza A (H3N2) Beijing/32/92; read-out: CPE Inhibition EC50
Measles Virus [19] = test: Measles virus neutral red dye uptake in BSC-1 cells; assay type: cell-based; settings: Measles morbillivirus, BSC-1
[20] = tested on: Influenza A (H1N1) Texas/36/91; test: microbe, parasite or virus in culture; assay type: cell-based, influenza A virus; settings: Influenza A virus, MDCK; Influenza A (H1N1) Texas/36/91; read-out: CPE Inhibition EC50
Measles Virus [21] = test: microbe, parasite or virus in culture; assay type: cell-based; settings: Measles morbillivirus, BSC-1; Measles Virus; read-out: CPI Inhibition EC50
Adenovirus Type 5 [22] = test: microbe, parasite or virus in culture; assay type: cell-based; settings: Human mastadenovirus C, A549, read-out: CPE Inhibition EC50
in vitro [23] = settings: human
[24] = 216 h, read-out: EC50 (50% effective dose), HBV Virion, 2.2.15 cells, extracellular (virion) HBV DNA, 9 days treatment
[25] = 216 h, read-out: EC90 (90% effective dose), HBV Virion, 2.2.15 cells, extracellular (virion) HBV DNA, 9 days treatment

In the case of `Nc1nc2c(ncn2CCC(CO)CO)c(=O)[nH]1` [Penciclovir, penciclovir, reference compound], the EC50 (Hepatitis B Virus (HBV); [24]) is reported as 190 nM, the EC90 (Hepatitis B Virus (HBV); [25]) is reported as 920 nM and the EC50 (Hepatitis B Virus (HBV); read-out: EC50, concentration necessary to decrease HBV DNA levels by 50%, 2.2.15 cells, combinations: with respect to RF) is reported as 190 nM. For the same compound, the EC90 (Hepatitis B Virus (HBV); read-out: EC90, concentration necessary to decrease HBV DNA levels by 90%, 2.2.15 cells, combinations: with respect to RF) was 920 nM, the “SI (CC50/EC90), HBV Virion” value (Hepatitis B Virus (HBV); selective index) was 471 and the IC50 (2.2.15 cells) was 433000 nM.

With `O=C1CC(c2ccc(O)cc2)Oc2cc(O)c(-c3c(O)cc4c(c3O)C(=O)CC(c3ccc(O)cc3)O4)c(O)c21` (centres unmarked) [Succedaneaflavanone (11), succedaneaflavanone] the EC50 [1] was > 10 µg/mL, the “VZV SI (CC50/EC50)” value (VZV) was < 3 and the “VZV SI (CC50/EC50)” value (VZV; listed as Succedaneaflavone (11)) was <3.0. The EC50 (VZV; Human alphaherpesvirus 3, HFF, read-out: VZV Plaque Reduction EC50) was > 20 µg/mL, the IC50 (in vitro [2]; CPE Inhibition IC50 (50% cell inhibitory (cytotoxic) concentration), Influenza A (H1N1) test) was 4.9 µg/mL (≈ 9.03 µM) and the IC50 (in vitro [2]; CPE Inhibition IC50 (cytotoxic), Influenza A (H3N2) test) was 12 µg/mL (≈ 22.1 µM). For the same compound, the IC50 (in vitro [2]; CPE Inhibition IC50 (cytotoxic), Influenza B test) was 15 µg/mL (≈ 27.6 µM), the “anti-HBV activity (in words)” value (Hepatitis B Virus (HBV)) was “inactive” and the “anti-HBV activity (in words)” value (Hepatitis B Virus (HBV); listed as succendaneaflavanone) was “little or no anti-HBV activity”. The EC50 (Hepatitis B Virus (HBV); [24]) was > 100000 nM, the EC90 (Hepatitis B Virus (HBV); [25]) was > 100000 nM and the EC50 (Influenza B Panama/45/90 [3]) was 2.2 µg/mL (≈ 4.06 µM). For the same compound, the “HSV-2 SI (CC50/EC50)” value (HSV-2; HFF Cells) was <3.0, the EC50 (HSV-2; Human alphaherpesvirus 2, HFF, read-out: HSV-2 CPE Inhibition EC50) was > 20 µg/mL and the EC50 [4] was 5.2 µg/mL (≈ 9.59 µM). For the same compound, the EC50 [5] was 23 µg/mL (≈ 42.4 µM), the “activity against HIV-1 RT (in words)” value (HIV-1 RT) was “completely inactive” and the inhibition at 200 µg/mL (HIV-1 RT; read-out: Anti-HIV-1 RT % Inhibition at 200 μg/ml) was 22.1%. For the same compound, the “Anti-HIV-1 RT IC50” value (HIV-1 RT; values in parentheses or in words) was “Inactive”, the IC50 (in vitro [6]; CPE Inhibition IC50 (cytotoxic), Respiratory Syncytial Virus test) was ~13 µg/mL (≈ 24 µM) and the IC50 (in vitro [6]; CPI Inhibition IC50 (cytotoxic), Parainfluenza Type 3 Virus test) was ~22 µg/mL (≈ 40.6 µM). It also gave an IC50 ([7]; Parainfluenza Type 3 Virus test) of ~29 µg/mL (≈ 53.5 µM), an IC50 ([7]; Respiratory Syncytial Virus test) of ~10 µg/mL (≈ 18.4 µM) and a CC50 at 3 days [8] of 60.7 µg/mL (≈ 112 µM). For the same compound, the CC50 at 10 days [8] was 60 µg/mL (≈ 111 µM), the CC50 at 14 days [8] was 55.5 µg/mL (≈ 102 µM) and the IC50 (in vitro [9]; Influenza A (H1N1) test) was 5 µg/mL (≈ 9.22 µM). For the same compound, the IC50 (in vitro [9]; Influenza A (H3N2) test) was 12 µg/mL (≈ 22.1 µM), the IC50 (in vitro [9]; Influenza B test) was 7 µg/mL (≈ 12.9 µM) and the EC50 [10] was > 10 µg/mL. For the same compound, the EC50 (Influenza B Panama/45/90 [11]) was 0.97 µg/mL (≈ 1.79 µM), the EC50 [12] was 12 µg/mL (≈ 22.1 µM) and the IC50 (in vitro [13]) was < 23 µg/mL. The IC50 [14] was < 20 µg/mL, the EC50 (Adenovirus Type 5 [15]) was 19 µg/mL (≈ 35 µM) and the “HSV-1 SI (CC50/EC50)” value (HSV-1; HFF Cells) was <3.0. For the same compound, the EC50 (HSV-1; Human alphaherpesvirus 1, HFF, read-out: HSV-1 CPE Inhibition EC50) was > 20 µg/mL, the IC50 [16] was 27 µg/mL (≈ 49.8 µM) and the EC50 [17] was ~16 µg/mL (≈ 29.5 µM). For the same compound, the “HCMV SI (CC50/EC50)” value (HCMV; HFF Cells) was <2.7, the EC50 (HCMV; Human betaherpesvirus 5, HFF, read-out: HCMV CPE Inhibition EC50) was > 20 µg/mL and the EC50 [18] was > 10 µg/mL. The EC50 (Measles Virus [19]) was < 12 µg/mL, the EC50 [20] was > 3.2 µg/mL and the EC50 (Measles Virus [21]) was ~32 µg/mL (≈ 59 µM). It also gave an EC50 (Adenovirus Type 5 [22]) of 10 µg/mL (≈ 18.4 µM) and an IC50 (in vitro [23]) of 22 µg/mL (≈ 40.6 µM).

Source: US6399654B1, “Biflavanoids and derivatives thereof as antiviral agents” (priority 1995, dated 2002)
